# Test results from paper PMC11645656, “MRGPRX4 mediates phospho-drug associated pruritus in a humanized mouse model” (Science translational medicine, 2024).
# “And” between values parts separate entries of the source, which are not always exact repeats. Identical values can stand only once.
# Columns and labels:
# MRGPRX4 (S83) = biological target: T1, MRGPRX4 (S83) (Homo sapiens, UniProt Q96LA9, L83S); experiment: EC50 determination, intracellular calcium mobilization in MRGPRX4 stably expressed HEK293 cells (FLIPR Calcium 5, Flexstation-3); type: cell-based; parameters: Fig. 1D dose-response, calcium mobilization response (individual replicate) / calcium mobilization response (Fig. 1D dose-response raw data): unit not given here; conditions: individual replicate values, listed as Phenytoin Sodium; for Fig. 1D dose-response, calcium response at Concentration (M): phenytoin series
# T1 construct: expressed in transfected cells
# T1 sequence (Q96LA9 whole entry L83S): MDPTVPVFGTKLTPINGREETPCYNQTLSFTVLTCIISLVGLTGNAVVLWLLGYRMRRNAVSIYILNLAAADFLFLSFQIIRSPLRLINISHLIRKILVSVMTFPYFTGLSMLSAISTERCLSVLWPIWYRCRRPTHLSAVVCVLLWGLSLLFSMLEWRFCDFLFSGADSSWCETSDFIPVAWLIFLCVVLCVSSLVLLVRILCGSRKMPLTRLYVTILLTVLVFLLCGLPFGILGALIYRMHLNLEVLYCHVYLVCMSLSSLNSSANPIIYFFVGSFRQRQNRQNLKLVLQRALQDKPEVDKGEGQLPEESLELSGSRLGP
# Outline: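 EC50 came from a four-parameter logistic fit to averaged triplicate responses, each response being maximum post-stimulation signal less baseline. Intracellular calcium was monitored with Calcium 5 dye in HBSS with 20 mM HEPES, pH 7.4, after 1 h dye loading at 37 °C, using stably transfected HEK293 cells and parental controls.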
# NP2-WT mice = experiment: Itch behavioral study (scratching bouts after subcutaneous nape injection) in littermate control NP2-WT mice; type: in vivo; conditions: 30 min after injection of 50 μl 10 mM into the nape, each cell one mouse
# MRGPRX4 WT (S83) = MRGPRX4 WT (S83) (Homo sapiens, UniProt Q96LA9, L83S); experiment: PRESTO-Tango β-arrestin recruitment assay, HTLA cells stably expressing WT (S83) MRGPRX4; type: cell-based; parameters: expressed in transfected cells; conditions: HTLA::MRGPRX4
# Sequence of MRGPRX4 WT (S83) (Q96LA9 whole entry L83S): as above
# [1] = IV, clinical trials; ref New Drug Application: 020450; cited from earlier work
compound,measurement,setting,value
O=C1NC(=O)C(c2ccccc2)(c2ccccc2)N1 [Phenytoin],"Fig. 1D dose-response, calcium response at Concentration (M)",MRGPRX4 (S83); 4.88281e-7 M,-45.834 and -46.962 and -43.233
same,"Fig. 1D dose-response, calcium response at Concentration (M)",MRGPRX4 (S83); 9.76563e-7 M,-42.023 and -51.874 and -41.78
same,"Fig. 1D dose-response, calcium response at Concentration (M)",MRGPRX4 (S83); 1.95313e-6 M,-57.631 and -43.259 and -52.591
same,"Fig. 1D dose-response, calcium response at Concentration (M)",MRGPRX4 (S83); 3.90625e-6 M,-30.902 and -51.949 and -54.701
same,"Fig. 1D dose-response, calcium response at Concentration (M)",MRGPRX4 (S83); 7.8125e-6 M,-36.341 and -24.025 and -23.478
same,"Fig. 1D dose-response, calcium response at Concentration (M)",MRGPRX4 (S83); 1.5625e-5 M,-24.49 and -31.993 and -24.486
same,"Fig. 1D dose-response, calcium response at Concentration (M)",MRGPRX4 (S83); 3.125e-5 M,-42.34 and -14.448 and -21.073
same,"Fig. 1D dose-response, calcium response at Concentration (M)",MRGPRX4 (S83); 6.25e-5 M,-29.178 and -38.728 and -12.364
same,"Fig. 1D dose-response, calcium response at Concentration (M)",MRGPRX4 (S83); 0.00025 M,21.7467 and 26.6867 and 14.9677
same,"Fig. 1D dose-response, calcium response at Concentration (M)",MRGPRX4 (S83); 0.0005 M,-0.1003 and 34.5457 and 1.141
same,calcium mobilization response (Fig. 1D dose-response raw data),MRGPRX4 (S83); concentration 4.88281e-7 M,-35.967 and -38.387 and -9.249 and -43.815 and -12.548 and -27.242
same,calcium mobilization response (Fig. 1D dose-response raw data),MRGPRX4 (S83); concentration 9.76563e-7 M,-3.6717 and 0.5703 and -1.3847 and -25.061 and -39.258 and -5.762
same,calcium mobilization response (Fig. 1D dose-response raw data),MRGPRX4 (S83); concentration 1.95313e-6 M,-0.8477 and -0.3367 and -2.8407 and -17.925 and -29.096 and -31.733
same,calcium mobilization response (Fig. 1D dose-response raw data),MRGPRX4 (S83); concentration 3.90625e-6 M,-4.2817 and -4.6827 and 7.036 and -45.513 and -21.585 and -2.642
same,calcium mobilization response (Fig. 1D dose-response raw data),MRGPRX4 (S83); concentration 7.8125e-6 M,-6.1147 and -5.4597 and 3.666 and -0.809 and -24.700 and -20.368
same,calcium mobilization response (Fig. 1D dose-response raw data),MRGPRX4 (S83); concentration 1.5625e-5 M,-2.1987 and 5.167 and -0.3347 and -19.624 and -8.530 and -11.014
same,calcium mobilization response (Fig. 1D dose-response raw data),MRGPRX4 (S83); concentration 3.125e-5 M,-5.0347 and -1.5897 and 2.935 and -19.576 and -12.591 and -8.608
same,calcium mobilization response (Fig. 1D dose-response raw data),MRGPRX4 (S83); concentration 6.25e-5 M,13.7733 and 12.6223 and 5.79 and -9.327 and -10.716 and -3.999
same,calcium mobilization response (Fig. 1D dose-response raw data),MRGPRX4 (S83); concentration 0.00025 M,17.3763 and 20.0503 and 26.8243 and 17.981 and 21.189 and 24.656
same,calcium mobilization response (Fig. 1D dose-response raw data),MRGPRX4 (S83); concentration 0.0005 M,40.1453 and 34.4913 and 26.1333 and 33.840 and 5.994 and 28.344
same,Scratching bouts of individual animals,NP2-WT mice,7 (2×) and 14 and 1 and 11 and 59 and 2 and 5 and 42 and 24
same,"PRESTO-Tango response (fig. S1), single replicate",MRGPRX4 WT (S83); concentration 4.88281e-6 M,0.1853 and 0.188 and 0.1763 and 0.05734 and 0.2683 and 0.2239
same,"PRESTO-Tango response (fig. S1), single replicate",MRGPRX4 WT (S83); concentration 9.76563e-6 M,0.2008 and 0.1594 and 0.1746 and 0.2158 and 0.02233 and 0.2967
same,"PRESTO-Tango response (fig. S1), single replicate",MRGPRX4 WT (S83); concentration 1.95313e-5 M,0.2906 and 0.2732 and 0.1192 and 0.006784 and 0.3171 and 0.3592
same,"PRESTO-Tango response (fig. S1), single replicate",MRGPRX4 WT (S83); concentration 3.90625e-5 M,0.1519 and 0.183 and 0.2178 and 0.1316 and 0.1884 and 0.2326
same,"PRESTO-Tango response (fig. S1), single replicate",MRGPRX4 WT (S83); concentration 7.8125e-5 M,0.1378 and 0.1891 and 0.1982 and 0.232 and 0.1107 and 0.1825
same,"PRESTO-Tango response (fig. S1), single replicate",MRGPRX4 WT (S83); concentration 0.0003125 M,0.1547 and 0.2414 and 0.1479 and 0.03891 and 0.4024 and 0.1026
same,"PRESTO-Tango response (fig. S1), single replicate",MRGPRX4 WT (S83); concentration 0.000625 M,0.1541 and 0.14 and 0.1288 and 0.1405 and 0.1553 and 0.127
same,"PRESTO-Tango response (fig. S1), single replicate",MRGPRX4 WT (S83); concentration 0.0025 M,0.1159 and 0.09904 and 0.1083 and 0.002223 and 0.1612 and 0.1598
same,"PRESTO-Tango response (fig. S1), single replicate",MRGPRX4 WT (S83); concentration 0.005 M,0.112 and 0.09938 and 0.09678 and 0.03875 and 0.1733 and 0.09617
same,Patients who reported itch,[1],4.5%
